According to patent publication US11572362B2, “Pyrrolo[1,2-b]pyridazine derivatives” (Gilead Sciences, Inc., priority 2018, dated 2023):

Assays:
IRAK4 = IRAK4 (Homo sapiens (Human), UniProt Q9NWZ3); test: IRAK4 Biochemical Assay (TR-FRET/HTRF); details: IRAK4 enzyme 0.75 nM, 500 μM ATP, 2 μM STK1 peptide, 120 min
Procedure: IRAK4 Biochemical Assay Procedure:
IRAK4 enzyme (Carna Biosciences, Chuo-ku, Kobe, Japan) activity was measured by detecting phosphorylated peptide substrate formation using an antibody against the phosphorylated peptide substrate. This is a time-resolved fluorescence resonance energy transfer (TR-FRET) immunoassay, based on the STK1 KinEASE Assay (Cisbio, Bedford, Mass.). The assay was designed as a simple two-step, endpoint assay (a 5 μl enzyme reaction followed by 5 μl stop and detect Solution) performed in ProxiPlate-384 Plus plates (Perkin Elmer, Waltham, Mass.). Staurosporine, a non-selective kinase inhibitor was used as a positive control. Compounds diluted in DMSO were spotted into 384 well plates using a Labcyte® Echo 550 Liquid Handling System prior to addition of IRAK4 enzyme and peptide substrate. Reaction solutions were delivered using a Multi-Flo (Bio-Tek Instruments). The enzyme and peptide solution was incubated with compound for 15 minutes at room temp before the reaction was initiated by the addition of ATP. The standard 5 μl reaction mixture contained 500 μM ATP, 2 μM peptide (STK1 Peptide), 0.75 nM of IRAK4 in reaction buffer (50 mM HEPES, pH 7.0, 0.02% NaN3, 0.01% BSA, 0.1 mM Orthovanadate, 5 mM MgCl2, 0.025% NP-40, 1 mM DTT). After 120 min of incubation at room temperature, 5 μl of Stop and Detect Solution (1:100 Cryptate labeled anti-phosphorylated peptide antibody solution and 125 nM Tracer in a 50 mM HEPES pH 7.0 detection buffer containing sufficient EDTA) was added. The plate was then further incubated for 60 minutes at room temperature and read on Envision 2103 Multilabeled reader (PerkinElmer) with excitation/emission/FRET emission at 340 nm/615 nm/665 nm, respectively. Fluorescence intensities at 615 nm and 665 nm emission wavelengths were expressed as a ratio (665 nm/615 nm). Percentage of inhibition was calculated as below: % Inhibition=100×(RatioSample−Ratio0% Inhibition)/(Ratio100% Inhibition−Ratio0% Inhibition)
The 0% inhibition value comes from control wells lacking inhibitor. The 100% inhibition value comes from control wells containing a saturating amount of known inhibitor staurosporine.

TNFα = test: IRAK4 Monocyte TNFα Cell Based Assay; details: Monocyte; cryopreserved human monocytes, 50 pg/ml LPS, compound 1 hour pre-treatment, 4 hours stimulation, TNFα by TR-FRET
Procedure: IRAK4 Monocyte TNFα Cell Based Assay Procedure:
The cell suspension was then plated at a density of 5,000 cells/well onto black 384 well Greiner clear bottom plates. Plates were pre-spotted with test compounds and serially diluted in DMSO where 40 nL/well were delivered using the Echo 550 acoustic liquid dispenser (Labcyte®) for a final DMSO concentration of 0.1%. Plated cells were treated with compound for 1 hour at 37° C. Cells were then stimulated with 50 pg/ml of LPS (Sigma) excluding outside columns of plate used for unstimulated cell control wells. Cells were incubated for an additional 4 hours at 37° C. Cells were then spun out of the media and 5 μl of sample were taken and analyzed for total TNFα content using the TR-FRET Human TNFα detection system (CisBio). This system utilizes two labeled antibodies (cryptate and XL665) that bind to two different epitopes of the TNFα molecule and produce FRET signal proportional to the concentration of TNFα in the sample. Detection antibodies are mixed 50:50 and 5 μL were dispensed into each well. Plates were covered with clear seals and incubated at room temp overnight. The following morning plates were read using an Envision 2103 Multilabeled reader (PerkinElmer) with excitation/emission/FRET emission at 340 nm/615 nm/665 nm, respectively. Fluorescence intensities at 615 nm and 665 nm emission wavelengths were expressed as a ratio (665 nm/615 nm). Percent of control was calculated as follows: % Control=100×(RatioSample−Ratio0% Stimulation)/(Ratio100% Stimulation−Ratio0% Stimulation)
where unstimulated cells (0% stimulation) were the negative control and stimulated cells (100% stimulation) were used as the positive control.

IRAK4, sequence (Q9NWZ3 whole entry): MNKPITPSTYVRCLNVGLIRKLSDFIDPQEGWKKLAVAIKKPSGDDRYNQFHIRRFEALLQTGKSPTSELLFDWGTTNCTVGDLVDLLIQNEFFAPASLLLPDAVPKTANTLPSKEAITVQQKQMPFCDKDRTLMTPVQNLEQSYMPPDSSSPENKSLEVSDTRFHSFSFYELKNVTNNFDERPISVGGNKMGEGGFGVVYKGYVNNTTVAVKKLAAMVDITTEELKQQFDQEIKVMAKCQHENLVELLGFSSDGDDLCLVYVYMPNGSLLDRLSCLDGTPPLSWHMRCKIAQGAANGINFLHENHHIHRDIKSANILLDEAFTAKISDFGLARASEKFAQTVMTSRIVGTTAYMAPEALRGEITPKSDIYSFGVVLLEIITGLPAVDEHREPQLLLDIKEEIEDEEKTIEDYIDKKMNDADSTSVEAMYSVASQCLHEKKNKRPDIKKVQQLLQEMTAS

Structure (SMILES) | IC50 (IRAK4) | EC50 (TNFα)
CC(C)(O)[C@H](F)CNC(=O)c1cnc(-c2ccc3cc(C#N)cnn23)cc1N[C@H]1CC[C@H](n2cc(C(F)(F)F)cn2)CC1 [Compound 30, 6-(3-cyanopyrrolo[1,2-b]pyridazin-7-yl)-N-((R)-2-fluoro-3-hydroxy-3-methylbutyl)-4-(((1r,4R)-4-(4-(trifluoromethyl)-1H-pyrazol-1-yl)cyclohexyl)amino)nicotinamide] | 4 nM | 136 nM
CC(C)(O)[C@H](F)CNC(=O)c1cnc(-c2ccc3cc(C#N)cnn23)cc1N[C@H]1CC[C@H](c2cnn(C(F)F)c2)CC1 [Compound 3, 6-(3-cyanopyrrolo[1,2-b]pyridazin-7-yl)-4-(((1r,4R)-4-(1-(difluoromethyl)-1H-pyrazol-4-yl)cyclohexyl)amino)-N-((R)-2-fluoro-3-hydroxy-3-methylbutyl)nicotinamide] | < 1 nM | 9 nM
CC(C)(O)[C@H](F)CNC(=O)c1cnc(-c2ccc3cc(C#N)cnn23)cc1NC1CCC(c2cnc(C(F)F)s2)CC1 (stereo partly drawn) [Compound 51, (R)-6-(3-cyanopyrrolo[1,2-b]pyridazin-7-yl)-4-((4-(2-(difluoromethyl)thiazol-5-yl)cyclohexyl)amino)-N-(2-fluoro-3-hydroxy-3-methylbutyl)nicotinamide] | 3 nM | 76 nM
COCc1nnc([C@H]2CC[C@H](Nc3cc(-c4ccc5cc(C#N)cnn45)ncc3C(=O)NC[C@@H](F)C(C)(C)O)CC2)o1 [Compound 40, 6-(3-cyanopyrrolo[1,2-b]pyridazin-7-yl)-N-((R)-2-fluoro-3-hydroxy-3-methylbutyl)-4-(((1r,4R)-4-(5-(methoxymethyl)-1,3,4-oxadiazol-2-yl)cyclohexyl)amino)nicotinamide] | 1 nM | 66 nM
CC(C)(O)[C@H](F)CNC(=O)c1cnc(-c2ccc3cc(C#N)cnn23)cc1N[C@H]1CC[C@H](n2cc(C(N)=O)nn2)CC1 [Compound 34, 4-(((1r,4R)-4-(4-carbamoyl-1H-1,2,3-triazol-1-yl)cyclohexyl)amino)-6-(3-cyanopyrrolo[1,2-b]pyridazin-7-yl)-N-((R)-2-fluoro-3-hydroxy-3-methylbutyl)nicotinamide] | < 1 nM | 43 nM
CC(C)(O)[C@H](F)CNC(=O)c1cnc(-c2ccc3cc(C#N)cnn23)cc1N[C@H]1CC[C@H](n2cc(F)cn2)CC1 [Compound 25, 6-(3-cyanopyrrolo[1,2-b]pyridazin-7-yl)-4-(((1r,4R)-4-(4-fluoro-1H-pyrazol-1-yl)cyclohexyl)amino)-N-((R)-2-fluoro-3-hydroxy-3-methylbutyl)nicotinamide] | 2 nM | 29 nM
CC(C)(O)[C@H](F)CNC(=O)c1cnc(-c2ccc3cc(C#N)cnn23)cc1N[C@H]1CC[C@H](c2cncs2)CC1 [Compound 49, 6-(3-cyanopyrrolo[1,2-b]pyridazin-7-yl)-N-((R)-2-fluoro-3-hydroxy-3-methylbutyl)-4-(((1r,4R)-4-(thiazol-5-yl)cyclohexyl)amino)nicotinamide] | < 1 nM | 13 nM

Results, then the molecule that gave them:

IC50 (IRAK4) | EC50 (TNFα) | Structure (SMILES)
< 1 nM | 19 nM | Cc1nnc(C23CCC(Nc4cc(-c5ccc6cc(C#N)cnn56)ncc4C(=O)NC[C@@H](F)C(C)(C)O)(CC2)CO3)o1 [Compound 64, (R)-6-(3-cyanopyrrolo[1,2-b]pyridazin-7-yl)-N-(2-fluoro-3-hydroxy-3-methylbutyl)-4-((1-(5-methyl-1,3,4-oxadiazol-2-yl)-2-oxabicyclo[2.2.2]octan-4-yl)amino)nicotinamide]
7 nM | 381 nM | CC(C)(O)[C@H](F)CNC(=O)c1cnc(-c2ccc3cc(C#N)cnn23)cc1N[C@H]1CC[C@H](n2nc(C(F)F)cc2C(F)F)CC1 [Compound 29, 4-(((1r,4R)-4-(3,5-bis(difluoromethyl)-1H-pyrazol-1-yl)cyclohexyl)amino)-6-(3-cyanopyrrolo[1,2-b]pyridazin-7-yl)-N-((R)-2-fluoro-3-hydroxy-3-methylbutyl)nicotinamide]
2 nM | 60 nM | CC(C)(O)[C@H](F)CNC(=O)c1cnc(-c2ccc3cc(C#N)cnn23)cc1NC1CCC(c2ncn(C(F)F)n2)CC1 (stereo partly drawn) [Compound 21, (R)-6-(3-cyanopyrrolo[1,2-b]pyridazin-7-yl)-4-((4-(1-(difluoromethyl)-1H-1,2,4-triazol-3-yl)cyclohexyl)amino)-N-(2-fluoro-3-hydroxy-3-methylbutyl)nicotinamide]
1 nM | 27 nM | CC(C)(O)[C@H](F)CNC(=O)c1cnc(-c2ccc3cc(C#N)cnn23)cc1N[C@H]1CC[C@H](c2cn(C(F)F)nn2)CC1 [Compound 18, 6-(3-cyanopyrrolo[1,2-b]pyridazin-7-yl)-4-(((1r,4R)-4-(1-(difluoromethyl)-1H-1,2,3-triazol-4-yl)cyclohexyl)amino)-N-((R)-2-fluoro-3-hydroxy-3-methylbutyl)nicotinamide]
< 1 nM | 33 nM | Cc1nnc([C@H]2CC[C@H](Nc3cc(-c4ccc5cc(C#N)cnn45)ncc3C(=O)NC[C@@H](F)C(C)(C)O)CC2)o1 [Compound 39, 6-(3-cyanopyrrolo[1,2-b]pyridazin-7-yl)-N-((R)-2-fluoro-3-hydroxy-3-methylbutyl)-4-(((1r,4R)-4-(5-methyl-1,3,4-oxadiazol-2-yl)cyclohexyl)amino)nicotinamide]
2 nM | 124 nM | CC(C)(O)[C@H](F)CNC(=O)c1cnc(-c2ccc3cc(C#N)cnn23)cc1N[C@H]1CC[C@H](c2nc(C(F)F)co2)CC1 [Compound 46, 6-(3-cyanopyrrolo[1,2-b]pyridazin-7-yl)-4-(((1r,4R)-4-(4-(difluoromethyl)oxazol-2-yl)cyclohexyl)amino)-N-((R)-2-fluoro-3-hydroxy-3-methylbutyl)nicotinamide]
< 1 nM | 28 nM | Cc1nc([C@H]2CC[C@H](Nc3cc(-c4ccc5cc(C#N)cnn45)ncc3C(=O)NC[C@@H](F)C(C)(C)O)CC2)no1 [Compound 44, 6-(3-cyanopyrrolo[1,2-b]pyridazin-7-yl)-N-((R)-2-fluoro-3-hydroxy-3-methylbutyl)-4-(((1r,4R)-4-(5-methyl-1,2,4-oxadiazol-3-yl)cyclohexyl)amino)nicotinamide]
2 nM | 169 nM | CC(C)(O)[C@H](F)CNC(=O)c1cnc(-c2ccc3cc(C#N)cnn23)cc1N[C@H]1CC[C@H](c2cnn(CC3CC3)c2)CC1 [Compound 13, 6-(3-cyanopyrrolo[1,2-b]pyridazin-7-yl)-4-(((1r,4R)-4-(1-(cyclopropylmethyl)-1H-pyrazol-4-yl)cyclohexyl)amino)-N-((R)-2-fluoro-3-hydroxy-3-methylbutyl)nicotinamide]
2 nM | 44 nM | CCn1cc([C@H]2CC[C@H](Nc3cc(-c4ccc5cc(C#N)cnn45)ncc3C(=O)NC[C@@H](F)C(C)(C)O)CC2)cn1 [Compound 12, 6-(3-cyanopyrrolo[1,2-b]pyridazin-7-yl)-4-(((1r,4R)-4-(1-ethyl-1H-pyrazol-4-yl)cyclohexyl)amino)-N-((R)-2-fluoro-3-hydroxy-3-methylbutyl)nicotinamide]
